{"source": "patent US6864093B1", "about": "“Method of identifying and treating invasive carcinomas” (University of Central Florida, priority 2000, dated 2005)", "type_in_all_cases": "cell-based, human", "key": {"[1]": {"test_system": "prostasin gene promoter (MDA-MB-435s cells)", "test": "demethylation of prostasin gene promoter, genomic Southern blot", "details": "500 nM, 8 days", "description": "(§1) High molecular weight genomic DNA was isolated from various cell lines as described in Chai, K X, Ward, D C, Chao, J, et al Molecular Clonings Sequence Analysis and Chromosomal Localization of the Human Protease Inhibitor 4 (kallistatin) gene (P14) Genomics 1994; 23:370-8. Genomic DNA frm each cell line was digested with the following restriction enzyme combinations:Xho I/BamH I (X/B), Xho I/BamH I/Hha (X/B/Hh), Xho I/BamH I/Aci I (X/B/A), Xho I/Bam H I.Bsa I (X/B/Bs),Xho I/Bam H I/Msp I(X/B/M) or Xho I/Bam H I/Hpa II(X/B/H) using 10 μg of DNA per digestion combination. The X/B cutting sites flank the CpG sies be to be investigated for differential methylation by the methylation-sensitive restriction endonucleases. The digests were resolved in a 0.8% agarose gel and analyzed by Southern blot hybridization as described in Chai, K X, Ward, D C, Chao, J et al. A nick translated prostasin promoter probe (bases 703-1,649) of the prostasin gene sequence, Genbank accession number U33446) was used for the hybridization. The base numbering of the prostasin gene sequence was described in Yu et al. […]"}, "[2]": {"test_system": "prostasin gene promoter (DU-145 cells)", "test": "demethylation of prostasin gene promoter, genomic Southern blot", "details": "DU-145, 8 days", "description": "as §1"}, "[3]": {"test_system": "prostasin gene promoter (PC-3 cells)", "test": "demethylation of prostasin gene promoter, genomic Southern blot", "details": "PC-3, 8 days", "description": "as §1"}, "[4]": {"test_system": "prostasin mRNA (MDA-MB-231 cells)", "test": "reactivation of prostasin expression, RT-PCR/Southern blot", "details": "MDA-MB-231, 500 nM 5-aza-2′-dC 24 hr followed by 95% ethanol (solvent for TSA)", "procedure": "(§2) Cells grown to 80% confluence (in […] tissue culture dish) were lysed directly with 1 ml of the Trizol Reagent (life Technologies) and RNA was isolated according to the manufacturer's protocol. The human prostasin-specific RT-PCR/Southern blot analysis was performed as described in Yu, J X, and Chao,J Molecular Cloning, tissue-specific expression and cellular localization of human prostasin mRNA. J Biol Chem 1995; 270:12483-4. One microgram of total RNA was used in the RT-PCR with 2 human prostasin gene-specific oligonucleotide primers, and a Southern blot of the resolved RT-PCR samples was probed with a third prostasin gene-specific oligonucleotide, detecting an amplified 232 bp fragment. A co-amplification of the β-actin mRNA for control of RNA quality and quantity was performed as described in Chen Hodge and Guarda, et al.\n(§3) For demethylation of prostasin gene promoter, MDA-MB-231 and MDA-MB-435s cells were seeded in 100 mm dishes at an initial density of 50% confluence and cultured in the presence of 500 nM 5-aza-2′-deoxycytidine (5-aza-2′dC; Sigma-Aldrich) for 8 days with renewal of medium and 5-aza-2′-dC performed at 2 day intervals. Genomic DNA was then isolated for Southern blot analysis as described. For reactivation of prostasin expression, MDA-MB-231 and MDA-MB-435s cells were seeded in 60 mm dishes at 80% confluence and cultured in the presence of 500 nM 5-aza-2′-dC for 24 hr, and were then treated for an additional 24 hr with either 1 μM trichostatin A (TSA; Sigma Aldrich) or an equal volume of 95% ethanol used to dissolve TSA. For measuring time-dependence of prostatin gene reactivation, cells were treated as described above but were harvested at 6 or 12 hr after the addition of TSA. RNA was isolated for prostasin-specifric RT-PCR/Southern blot analysis as described. The MCF-7 and the MDA-MB-453 cell ines were subjected tot the same 5-aza-2′-dC/TSA treatment and prostasin RT-PCR Southern blot analysis procedures."}, "[5]": {"test_system": "prostasin mRNA (MDA-MB-435s cells)", "test": "reactivation of prostasin expression, RT-PCR/Southern blot", "procedure": "as §2, §3"}, "[6]": {"test_system": "prostasin mRNA (DU-145 cells)", "test": "reactivation of prostasin expression, RT-PCR/Southern blot", "details": "DU-145, after 8 days 5-aza-2′-dC", "procedure": "as §2\n(§4) Du-145 and […] an additional 24 hours with either 1 μM trichostatin A (TSA, Sigma-Aldrich Co.) or an equal volume of 95% ethanol used to dissolve TSA. TNA was isolated for prostasin-specific RT-PCR/Southern blot analysis as described in example 1."}, "[7]": {"test_system": "prostasin mRNA (PC-3 cells)", "test": "reactivation of prostasin expression, RT-PCR/Southern blot", "details": "PC-3, after 8 days 5-aza-2′-dC", "procedure": "as §2, §4"}}}
{"smiles": "Nc1ncn([C@H]2C[C@H](O)[C@@H](CO)O2)c(=O)n1", "note": "[5-aza-2′-dC, 5-aza-2′-deoxycytidine]", "values": [{"measurement": "demethylation of prostasin promoter-exon 1 region", "setting": "[1]", "value": "significant level of demethylation"}, {"measurement": "demethylation of prostasin promoter", "setting": "[2]", "value": "significant level of demethylation"}, {"measurement": "demethylation of prostasin promoter", "setting": "[3]", "value": "significant level of demethylation"}, {"measurement": "prostasin mRNA re-expression", "setting": "[4]", "value": "did not result in prostasin mRNA re-expression"}, {"measurement": "prostasin mRNA re-expression", "setting": "[5]; 500 nM 5-aza-2′-dC 24 hr followed by 95% ethanol (solvent for TSA)", "value": "did not result in prostasin mRNA re-expression"}, {"measurement": "prostasin mRNA expression", "setting": "[5]; after 8-day 5-aza-2′-dC treatment", "value": "failed to detect prostasin mRNA expression"}, {"measurement": "prostasin mRNA expression", "setting": "[6]", "value": "no prostasin mRNA expression was detected"}, {"measurement": "prostasin mRNA expression", "setting": "[7]", "value": "no prostasin mRNA expression was detected"}]}
